Laboratory results reported in patent US6780984B2, “Method for prognosing cancer and the proteins involved” (Northwestern University, priority 2000, dated 2004).

Legend:
[1] = system: PC3 cells transfected with the tripartite fusion protein; assay: FACS analysis of annexin V staining; type: cell-based, human; settings: 300 nM OHT for 72 hours, cells expressing GFP-TRAITS-ER
Description: (§1) FIGS. 16a-16c show the apoptosis induction by TRAITS activation. […] The GFP-TRAITS-ER protein is localized primarily in cytoplasm in the absence of OHT, as visualized under green fluorescent microscope. The fusion protein was translocated into nuclei 24 hours after treatment of the cells with 300 nM OHT and then condensed in the fragmented nuclei 48 hours after the OHT treatment. The condensed and fragmented nuclei of the OHT-treated PC3 cells were then visualized by Hoechst staining. […] The PC3 cells were cultured in the absence or presence of 300 nM OHT for 72 hours prior to FACS analysis. The figure represents one of the 3 different experiments.
(§2) Cell death assays flow cytometry analysis: In flow cytometry analysis, cells cultured under the indicated conditions were harvested for staining with the TACS™ Annexin V-Biotin apoptosis detection kit (R & D systems). Propidium iodide was used for nuclei staining and Cy5 was conjugated to Annexin V-biotin. Apoptosis of Annexin V-positive cells was analyzed by FACS. Hoechst 33342 (Molecular Probes) was used for nuclear condensate staining and DNA fragmentation assay.

[2] = system: AT6.1 xenograft prostate tumor; assay: AT6.1 prostatic xenograft tumor growth in nude mice; type: in vivo
From the text: The tamoxifen pellets were implanted at the time of AT6.1 cell injection. The error bars represent S.E.M. The tamoxifen inhibition of AT6.1 tumor growth was statistically significant (p<0.005) at every time point of tumor measurement. […] The loading of total RNA was visualized by methylene blue staining. FIG. 17c is the northern blot analysis of TRAITS expression in rat prostatic tissues and cancer cell lines. The loading of total RNA was visualized by methylene blue staining. […] Affinity purified anti-human TRAITS polyclonal antibody was used in immunostaining of radical prostatectomy specimens from 8 patients with advanced prostate cancer (Gleason-score 7 to −10). […] A typical TRAITS down-regulation was shown with 20× objective (left) and the boxed area shown at high magnification (middle). A parallel staining without primary antibody (right) was conducted as a control. Blue arrows with solid line point to benign epithelial cells whereas red arrows with broken line indicate cancerous cells.
Tumor growth: To determine their tumorigenicity, AT6.1 cells were injected subcutaneously (1×10^5 cells) into 4-6 week old male nu/nu mice (NCI). […] Tumor sizes were calculated using formula V=π×h (h^23a^2)/6, a=(L((+))W)/4 (Nature, 405:354-359) and the Student's t-test (two-tailed) was performed to analyze statistical significance using the SPSS 10.0 software (SPSS Inc., Chicago, Ill.).

PC3 cells [3] = assay: Apoptosis induction by GFP fusion constructs transfected into PC3 cells; type: cell-based, human; settings: for cells expressing the GFP fusion protein: 10 days in medium including 500 μg/ml geneticin (G418); for role of domain in apoptosis induction: domain mapping / deletion mutagenesis, GFP fusions
Description: as §1
(§3) Vector constructions and mutagenesis: The cDNAs of rat and human TRAITS were cloned into pEGFP C1, pEGFP N3, PM and pIRES2-EGFP(Clontech) by PCR. Deletion mutagenesis of TRAITS were generated by PCR and cloned into above first three vectors. The plasmids containing ER™ domain were kindly provided by G. Evan (UCSF, San Francisco). ER™ domain was cut with BamHI/EcoRI and recloned into pEGFP-TRAITS to generate a tripartite fusion protein. All constructions were verified by sequencing and transfected using Lipofectamine (Gibco), Super Fect reagent (Qiagen) or Fugene 6 (Roche). In stable transfection, 500 μg/ml geneticin (G418) was used for selection of positive clones.
Genomic structure and mutagenesis of TRAITS: TRAITS is composed of six exons (FIG. 18) which in humans encode respectively, 35 amino acid residues, 32 amino acid residues, 46 amino acid residues, 48 amino acid residues, 85 amino acid residues, and 14 amino acid residues (see FIG. 14a for exon junctions). In an effort to determine the role of individual domains, domain mapping was performed by fusing nucleic acids encoding GFP to nucleic acids encoding fragments of the TRAITS in pEGFPN3 vectors. The vectors was then used for transient and stable transfection of PC3 cells. The ability of the various constructs to induce apoptosis was determined.

[4] = system: DNA sequence ACTTTA (T-box); assay: Electrophoretic mobility shift assay (EMSA); type: binding; settings: competed by cold T-wt but not by cold T-mut
Description: (§4) A non-specific complex (*) in the presence of GST-TRAITS was also formed in the presence of GST only. Labeled free DNA (F) was also indicated. […] NIH3T3 cells were transiently transfected with empty vector (PM) or vectors expressing the full-length rat TRAITS (residues 1-262 of SEQ ID NO:14), its N-terminal (residues 1-113 of SEQ ID NO:14), or its C-terminal (residues 114-262 of SEQ ID NO:14) plus pG5CAT reporter and pSV-β-gal for normalization. Assays were performed after 24 hours of transfection. The fold activation of CAT reporter is shown with S.E.M. Assays were performed in triplicate in two separate experiments.
Two oligonucleotides: T-wt: (5′-[…] GAAGCTTACGTCGCG-3′ SEQ ID NO:33) and T-mut: (5′-[…] CGAAGCTTACGTCGCG-3′ SEQ ID NO:34) were synthesized and amplified by PCR. T4 polynucleotide kinase (Promega) was used to label T-wt & T-mut by [γ-^32P] ATP (NEN). Recombinant GST-TRAITS fusion protein was incubated with 500 μg poly [dI-dC] and EMSA was performed according to the protocol provided by Gel Shift Assay System (Promega).

PC3 cells [5] = assay: Soft agar assay (anchorage-independent growth); type: cell-based, human; settings: stable overexpression in PC3 sublines
Description: FIGS. 4A-4D show the effect of calreticulin overexpression on colony formation of PC3 cells in a soft agar assay, PC3 (FIG. 4A), Mock (FIG. 4B), Crt 35 (FIG. 4C) and Crt 59 (FIG. 4). The soft agar assay was conducted in 6-well plates. The bottom agar is 2 ml 0.6% noble agar containing 1×RPMI 1640 medium supplemented with 10% fetal bovine serum (FBS). After the preparation of bottom agar, 1 ml of 0.3% top agar containing 5,000 cells and 1×RPMI 1640 medium supplemented with 10% FBS was added to form the top layer. The assay for each PC3 subline was carried out in duplicate and was repeated at least 3 times.
Colonies with greater than 125 um in diameter were counted in the quantification. Error bars represent standard error means (SEM).
Soft agar assay: The soft agar assay was conducted in 6-well plates. The bottom agar is 2 ml 0.6% noble agar containing 1×RPMI 1640 medium supplemented with 10% FBS. After the preparation of bottom agar, 1 ml of 0.3% top agar containing 5,000 cells and 1×RPMI 1640 medium supplemented with 10% FBS was added to form the top layer. The assay for each PC3 subline was carried out in duplicate and was repeated at least 3 times.

[6] = system: CAT reporter gene expression; assay: Mammalian two-hybrid analysis, CAT reporter assay in NIH3T3 cells; type: cell-based
Description: as §4
CAT reporter assays: CAT activities were assayed 24 hours after transfection. NIH3T3 cells were grown in 6-well plates and transfected using Superfect (Qiagen). For transient transfection, 2 μg of PM constructions, 2 μg of pSVβ-gal (internal control) and 2 μg of pG5CAT (Clontech) were used per well. The level of CAT protein in cell extracts was determined using a CAT ELASA kit (Roche) according to the manufacturer. Protein concentration was measured using a Dc protein Assay kit (Bio-Rad). β-Galactosidase activity was measured by incubating with ONPG (o-nitrophenyl-β-D-galactopyranoside) solution. Data are reported as means ±S.E.M. of two separate experiments performed in triplicate.

ventral prostate = assay: C3(I)-TID-1 transgenic mice; type: in vivo, mouse; settings: transgenic vs non-transgenic littermates
From the text: To study the role of TRAITS protein in the prostate in vivo, an expression vector, C3 (I)-TID-1, was generated that expresses TRAITS under the control of the prostate C3(I) promoter [Zhang et al., Prostate, 32:16-26 (1997)]. The C3(I) promoter is androgen-dependent and active only in the ventral prostate and testis. Two transgenic mouse lines were identified by PCR amplification of the tail genomic DNA using primers specific for the TRAITS transgene. […] The C3(I)-TID-1 transgenic mice are fertile.

[7] = system: human prostate cancer cell lines (LNCaP, PC3, DU145 and TSU), rat Dunning prostate tumor cell lines, NIH3T3 and Hela; assay: Cell death after transient transfection of TRAITS expression vectors; type: cell-based
From the text: as §3, §2
To further characterize the function of TRAITS, green fluorescent protein (GFP) was tagged to TRAITS at its N-terminal or C-terminal ends using pEGFP C1 and pEGFP N3 vector, respectively (Clontech). […]

PC3 cells [8] = assay: Proliferation assay (cell numbers); type: cell-based, human; settings: ectopic expression, stably transfected PC3 sublines, culture in 6-well plates 4-5 days
From the text: The cell numbers of the parental PC3, empty pcDNA3.1 vector transfected PC3 sublines M1 and M2, and pcDNA3.1-TID-1 transfected PC3 sublines 27, 41, and 44 were counted after culture in 6-well plates for 4 days.
The cell numbers of the parental PC3, empty pCMV-Tag vector transfected PC3 sublines fM1 and fM2, and pCMV-Tag-fTID-1 transfected PC3 sublines f33, f17, and f23 were counted after culture in 6-well plates for 5 days. The proliferation and soft agar assays are described in Methods of Example 3 below.
Proliferation assay: Cells were plated onto 6-well plates in triplicate at 50,000 cells/well and cultured in RPMI 1640 medium supplemented with 10% fetal bovine serum (FBS), and 1% penicillin/streptomycin. The cells were trypsinized and counted each day afterwards for a five-day time course. The data were plotted using the GraphPad Prism software. The error bars represent SEM and they are difficult to see when SEM is very small. The cell proliferation assay was repeated 3 times and the results were very reproducible.

LNCaP = assay: Stable transfection of LNCaP with CMV-fTID-1; type: cell-based, human; settings: two different experiments
From the text: The CMV-fTID-1 expression vector was also transfected into LNCaP, an androgen-responsive human prostate cancer cell line [Horoszewicz et al., Cancer Research 43:1809-18 (1983)], in two different experiments. […] The expression of the endogenous TID-1 gene was also not detected in the rat Dunning tumor cell lines (FIGS. 10A-10B) and various human prostate cancer cell lines including LNCaP, PC3, DU145, and TSU cells. […] Stable expression was observed using a CMV promoter-based expression vector. Clonal variations of stably transfected cells can be minimized by assaying multiple, (e.g., three) independent stably transfected sublines.

## 4-hydroxytamoxifen [OHT]
[1]
  apoptotic cells (annexin V): 60.7%

## CC/C(=C(\c1ccccc1)c1ccc(OCCN(C)C)cc1)c1ccccc1 [tamoxifen]
[2]; tamoxifen administration, parallel experiments
  growth of xenograft tumors from parental or GFP-ER transfected AT6.1 cells: no detectable influence
[2]; tamoxifen pellets implanted at cell injection, p<0.005
  growth of xenograft tumors from AT6.1 sublines expressing GFP-TRAITS-ER: significantly inhibited

## EAF1: protein with sequence homology to TRAITS, SEQ ID NO:20; tested as GFP fusion
PC3 cells [3]; GFP fusion proteins from pEGFP N3, human and mouse
  cell death: cause cell death

## GST-TRAITS: E. coli-purified GST-TRAITS fusion protein
[4]
  binding to labeled T-box containing DNA: forms a DNA-protein complex

## N-terminal region of TRAITS: approximately amino acids 1-113 of TID-1, fused to GFP
PC3 cells [3]
  cells expressing the GFP fusion protein: none of the cells were found to express the N-terminal fusion protein
  role of domain in apoptosis induction: necessary and sufficient for inducing apoptosis

## TID-1: novel testosterone regulated apoptosis inducer and tumor suppressor; transcription factor, SEQ ID NOs:14 (rat), 16 (mouse), 18 (human)
PC3 cells [5]
  colony formation in soft agar: inhibition of the size and number of colonies
[6]; 24 hours after transfection
  transactivation of CAT reporter gene expression: more than 40 fold
Ventral prostate
  enhancement of epithelial cell number per unit area in the ventral prostate: 2-3 fold
[7]
  programmed cell death phenotype of transfected cells: efficiently induced chromatin condensation and cell death
PC3 cells [8]
  reduction in cell numbers: 2 fold

## exon III: TRAITS fragment corresponding to amino acids 68-113 of SEQ ID NO:18, fused to GFP
PC3 cells [3]
  role of domain in apoptosis induction: both necessary and sufficient to induce apoptosis

## fTID-1: FLAG tagged TID-1 protein expressed from pCMV-Tag-fTID-1
LNCaP
  recovery of clones expressing fTID-1: no LNCaP clones expressing fTID-1 were found
PC3 cells [8]
  reduction in cell numbers: 2 fold

B1: C-terminal region: remaining approximately 147-149 amino acids of TID-1 containing the transactivation domain (protein)
chain: GEGSSKIQCRLEQQQQQMWNPPRTSNLVQHSPSEDKLSPTSLMDDIERELKAEASLMDQMSSCDSSSDSRSSSSSSSEDSSSDSEDDDRSSPSGPRRYSSEHPSVSAGPQYRTSDADTTCNRLYDNSALLMSTLRSDLQLSESDSDSED
[6]; deletion of the N-terminal region
  transactivation relative to full-length (deletion mutagenesis): enhance the transactivation
PC3 cells [3]
  cells expressing the GFP fusion protein: many of the cells expressed the C-terminal fusion protein
  role of domain in apoptosis induction: not required for TRAITS to induce apoptosis
